{"source": "patent US20100040706A1", "about": "“METHOD OF ANTI-AGEING COSMETIC CARE BY STIMULATION OF SURVIVIN EXPRESSION” (LVMH RECHERCHE, priority 2008, published 2010)", "test_system": "survivin", "assay": "Survivin ELISA assay on normal human keratinocyte cultures, related to total proteins (BCA)", "assay_type": "cell-based", "details": "forskolin 4 μg/ml (10 μM)", "experimental": "The normal human keratinocytes are cultured in 75 cm^2 flasks, in an incubator at 37° C. under a humid atmosphere containing 5% CO2, in serum-free keratinocyte medium supplemented with EGF (Epidermal Growth Factor) and with BPE (Bovine Pituitary Extract) (KSFMc) (Gibco ref: 17005-034+37000-015). The cells are seeded (day D0) into 48-well microplates in a proportion of 50 000 cells in 500 μL of medium per well. After incubation for 24 hours (day D1), the cells have become adherent and the treatment step is then carried out. The seeding medium is removed and the treatment medium containing the ingredients to be evaluated at the various concentrations, or the excipient thereof (for example DMSO) in the same proportion, is then added to each culture well. A peak of survivin expression by the cells is observed after treatment for 16 hours. The wells are then rinsed with PBS. Half the wells of the microplate are used to lyse the keratinocytes and to assay the intracellular survivin. […] The total proteins are assayed using a BCA colorimetric test (reference: BC Assay Kit, Uptima Interchim), by measuring absorbance at 570 nm. […] After the enzyme reaction has been blocked with sulfuric acid, the survivin is quantified by measuring absorbance at 450 nm."}
{"smiles": "C=C[C@@]1(C)CC(=O)[C@]2(O)[C@@]3(C)[C@@H](O)CCC(C)(C)[C@@H]3[C@H](O)[C@H](OC(C)=O)[C@@]2(C)O1", "note": "[Forskolin, forskolin]", "values": [{"measurement": "% activation", "setting": "16 h, solvent control = 100%", "value": 147.9, "unit": "%"}, {"measurement": "Survivin", "setting": "16 h treatment, normal human keratinocytes", "value": 7.27, "unit": "pg/mg proteins"}]}
